Reference: patent US9957270B2, “Fused pyrimidine-based hydroxamate derivatives” (Agency for Science, Technology and Research, priority 2014, dated 2018)

Legend:
MV-4-11 = experiment: cells; settings: Homo sapiens, MV4-11, 72 h, read-out: In Vitro Cellular IC50 MV-4-11
MCF7 = experiment: Anti-proliferative assay (cellular IC50), MCF7; settings: Homo sapiens, MCF7, 72 h, read-out: In Vitro Cellular IC50 MCF7
MOLT-4 = experiment: Anti-proliferative assay (cellular IC50), MOLT-4; settings: Homo sapiens, MOLT-4, 72 h, read-out: In Vitro Cellular IC50 MOLT-4
HDAC1 = HDAC1 (Homo sapiens, UniProt Q13547); experiment: HDAC enzyme assay, recombinant HDAC1
Sequence of HDAC1 (Q13547 whole entry): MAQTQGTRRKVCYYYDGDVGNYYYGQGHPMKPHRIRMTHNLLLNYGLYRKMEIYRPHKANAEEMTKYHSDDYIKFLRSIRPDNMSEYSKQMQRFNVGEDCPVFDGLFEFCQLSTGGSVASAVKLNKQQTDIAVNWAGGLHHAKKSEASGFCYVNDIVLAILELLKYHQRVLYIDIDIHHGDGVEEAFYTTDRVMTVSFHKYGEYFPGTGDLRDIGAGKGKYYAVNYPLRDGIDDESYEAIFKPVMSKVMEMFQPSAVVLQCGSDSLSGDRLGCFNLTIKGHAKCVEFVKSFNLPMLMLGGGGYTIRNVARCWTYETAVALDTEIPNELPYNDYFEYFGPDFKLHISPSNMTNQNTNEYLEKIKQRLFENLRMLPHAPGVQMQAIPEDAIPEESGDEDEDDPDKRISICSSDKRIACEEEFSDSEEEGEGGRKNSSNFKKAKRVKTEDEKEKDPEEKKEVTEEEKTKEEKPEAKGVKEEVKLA

COLO 205 = experiment: cells; settings: Homo sapiens, COLO 205, 72 h, read-out: In Vitro Cellular IC50 COLO 205
[1] = target: HDAC (HeLa nuclear extracts); experiment: HDAC enzyme assay, HeLa nuclear extracts; settings: read-out: In Vitro Enzymatic IC50 HDAC (HeLa)
[2] = Microsomal stability, rat liver microsomes
Protocol: (§1) GIBIO pooled human liver microsomes (HLM) (Cat # HMMCPL), mouse liver microsomes (MLM) (Cat # BCMCPL), and rat liver microsomes (RLM) (Cat # RTMCPL) were purchased from Life Technologies. […] Samples are incubated for 30, 45, or 60 min. Reaction is terminated with ice-cold acetonitrile 0.3% formic acid. Samples are subsequently centrifuged at 4° C. for 15 min at 20,000×g. The supernatant is analysed by LC-MS.
(§2) Compound in vitro metabolic stability was assayed using liver microsomes (LM) at 0.5 mg/mL of proteins, incubated for 30 min (mouse, MLM), 45 min (rat, RLM), 30 or 45 min (human, HLM). % of remaining parent compound was measured using LC-MS.

K-562 = experiment: Anti-proliferative assay (cellular IC50), K-562; settings: Homo sapiens, K562, 72 h, read-out: In Vitro Cellular IC50 K-562
[3] = Microsomal stability, human liver microsomes
Protocol: as §1, §2

PC-3 = experiment: Anti-proliferative assay (cellular IC50), PC-3; settings: Homo sapiens, PC-3, 72 h, read-out: In Vitro Cellular IC50 PC-3
[4] = Microsomal stability, mouse liver microsomes
Protocol: as §1, §2

HDAC6 = target: T1, HDAC6 (Homo sapiens, UniProt Q9UBN7); experiment: HDAC enzyme assay, recombinant HDAC6
T1 sequence (Q9UBN7 1-1215): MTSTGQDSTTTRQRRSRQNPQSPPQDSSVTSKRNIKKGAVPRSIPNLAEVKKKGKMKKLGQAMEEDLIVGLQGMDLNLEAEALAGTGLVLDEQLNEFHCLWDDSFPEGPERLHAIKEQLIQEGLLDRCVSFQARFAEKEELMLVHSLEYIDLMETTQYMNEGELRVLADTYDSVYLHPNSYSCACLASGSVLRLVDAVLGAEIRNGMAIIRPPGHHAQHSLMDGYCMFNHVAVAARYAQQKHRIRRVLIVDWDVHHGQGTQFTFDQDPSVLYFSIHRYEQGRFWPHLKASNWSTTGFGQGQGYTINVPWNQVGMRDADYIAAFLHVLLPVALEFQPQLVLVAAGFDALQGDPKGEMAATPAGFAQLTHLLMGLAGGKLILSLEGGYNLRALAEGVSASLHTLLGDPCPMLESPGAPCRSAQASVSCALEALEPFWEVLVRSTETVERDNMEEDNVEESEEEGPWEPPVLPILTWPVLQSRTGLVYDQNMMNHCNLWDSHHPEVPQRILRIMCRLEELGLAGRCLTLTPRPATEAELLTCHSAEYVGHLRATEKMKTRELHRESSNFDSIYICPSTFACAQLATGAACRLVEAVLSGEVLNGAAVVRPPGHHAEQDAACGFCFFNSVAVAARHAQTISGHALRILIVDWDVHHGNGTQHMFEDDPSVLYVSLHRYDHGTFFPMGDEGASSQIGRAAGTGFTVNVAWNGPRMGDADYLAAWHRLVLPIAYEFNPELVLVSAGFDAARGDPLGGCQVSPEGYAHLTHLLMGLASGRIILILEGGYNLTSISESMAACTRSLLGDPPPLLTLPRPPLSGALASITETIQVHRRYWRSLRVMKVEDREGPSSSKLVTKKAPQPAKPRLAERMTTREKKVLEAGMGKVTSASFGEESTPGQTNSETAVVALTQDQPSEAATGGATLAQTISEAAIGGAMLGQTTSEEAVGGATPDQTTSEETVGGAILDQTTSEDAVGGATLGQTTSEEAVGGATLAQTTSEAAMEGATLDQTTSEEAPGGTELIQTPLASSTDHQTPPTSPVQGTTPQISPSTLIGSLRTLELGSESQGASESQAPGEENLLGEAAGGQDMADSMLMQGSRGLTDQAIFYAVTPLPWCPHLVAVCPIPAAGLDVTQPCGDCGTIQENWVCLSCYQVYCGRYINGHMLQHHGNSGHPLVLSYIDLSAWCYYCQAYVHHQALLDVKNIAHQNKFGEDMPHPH

PI3Kα = target: T2, PI3Kα (Homo sapiens, UniProt P42336); experiment: Kinase enzyme assay (ADP-Glo), PI3Kα; format: biochemical; settings: read-out: In Vitro Enzymatic IC50 PI3Kα
T2 construct: purchased Invitrogen, or BPS Bioscience Inc., or SignalChem PV4788 / 40620 / P27-18H
T2 sequence (P42336 whole entry): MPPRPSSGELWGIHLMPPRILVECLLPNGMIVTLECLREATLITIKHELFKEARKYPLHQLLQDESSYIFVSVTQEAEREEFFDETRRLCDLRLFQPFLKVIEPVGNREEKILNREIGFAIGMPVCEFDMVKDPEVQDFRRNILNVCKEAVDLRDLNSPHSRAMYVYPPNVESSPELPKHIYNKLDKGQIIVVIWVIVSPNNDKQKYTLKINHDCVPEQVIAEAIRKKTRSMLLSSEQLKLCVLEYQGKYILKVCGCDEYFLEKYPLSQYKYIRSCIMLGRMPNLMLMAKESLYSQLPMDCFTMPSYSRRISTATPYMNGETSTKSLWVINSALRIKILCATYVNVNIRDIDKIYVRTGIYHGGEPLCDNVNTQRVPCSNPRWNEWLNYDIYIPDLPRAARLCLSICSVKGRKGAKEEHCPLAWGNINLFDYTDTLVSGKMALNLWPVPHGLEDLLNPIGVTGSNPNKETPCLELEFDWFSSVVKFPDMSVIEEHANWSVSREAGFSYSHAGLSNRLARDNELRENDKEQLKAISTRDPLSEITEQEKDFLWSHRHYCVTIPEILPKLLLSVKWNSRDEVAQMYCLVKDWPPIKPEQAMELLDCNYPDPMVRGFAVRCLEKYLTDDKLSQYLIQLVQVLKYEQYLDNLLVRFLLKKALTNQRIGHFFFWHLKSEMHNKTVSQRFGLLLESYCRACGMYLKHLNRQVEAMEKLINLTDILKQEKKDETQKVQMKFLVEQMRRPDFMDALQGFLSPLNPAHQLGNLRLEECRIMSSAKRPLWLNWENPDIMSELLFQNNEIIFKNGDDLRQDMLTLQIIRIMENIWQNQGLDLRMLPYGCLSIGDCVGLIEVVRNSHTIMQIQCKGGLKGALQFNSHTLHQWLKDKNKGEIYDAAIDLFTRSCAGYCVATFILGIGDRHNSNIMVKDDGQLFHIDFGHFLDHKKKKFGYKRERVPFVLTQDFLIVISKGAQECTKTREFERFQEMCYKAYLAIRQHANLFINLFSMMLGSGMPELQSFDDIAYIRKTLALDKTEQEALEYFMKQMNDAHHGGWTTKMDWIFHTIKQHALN
T2 sequence (P27986 whole entry partner): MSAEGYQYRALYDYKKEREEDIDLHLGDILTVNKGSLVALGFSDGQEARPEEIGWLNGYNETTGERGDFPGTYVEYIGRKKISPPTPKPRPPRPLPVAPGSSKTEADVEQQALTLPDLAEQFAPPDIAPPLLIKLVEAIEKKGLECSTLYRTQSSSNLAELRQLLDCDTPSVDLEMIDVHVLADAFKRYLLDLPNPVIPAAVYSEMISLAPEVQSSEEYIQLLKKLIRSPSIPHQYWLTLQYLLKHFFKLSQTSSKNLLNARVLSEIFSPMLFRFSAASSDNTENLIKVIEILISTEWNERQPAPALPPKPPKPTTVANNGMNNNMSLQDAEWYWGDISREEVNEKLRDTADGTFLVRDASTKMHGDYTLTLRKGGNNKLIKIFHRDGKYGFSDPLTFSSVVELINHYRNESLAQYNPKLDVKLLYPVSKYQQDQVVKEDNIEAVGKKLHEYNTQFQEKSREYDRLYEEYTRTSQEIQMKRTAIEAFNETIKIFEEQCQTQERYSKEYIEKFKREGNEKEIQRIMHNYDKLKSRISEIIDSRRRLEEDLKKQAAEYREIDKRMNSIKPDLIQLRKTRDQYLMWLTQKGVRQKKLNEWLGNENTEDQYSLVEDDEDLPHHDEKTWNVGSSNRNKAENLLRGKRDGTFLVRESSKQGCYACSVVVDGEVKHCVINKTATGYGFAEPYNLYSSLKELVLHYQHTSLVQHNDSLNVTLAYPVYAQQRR

HCT 116 = experiment: cells; settings: Homo sapiens, HCT-116, 72 h, read-out: In Vitro Cellular IC50 HCT 116
HepG2 = experiment: Anti-proliferative assay (cellular IC50), HepG2; settings: Homo sapiens, HepG2, 72 h, read-out: In Vitro Cellular IC50 HepG2
[5] = rat, microsomes, 0.75 h, 5 μM, pH 7.4
[6] = human, microsomes, 0.75 h, 5 μM, pH 7.4
[7] = mouse, microsomes, 0.5 h, 5 μM, pH 7.4

Row | Compound | IC50 (MV-4-11) [µM] | IC50 (MCF7) [µM] | IC50 (MOLT-4) [µM] | IC50 (HDAC1) [µM] | IC50 (COLO 205) [µM] | IC50 [1] [µM] | Microsomal Stability RLM, % of remaining parent compound [2, 5] [%] | IC50 (K-562) [µM] | Microsomal Stability HLM, % of remaining parent compound [3, 6] [%] | IC50 (PC-3) [µM] | Microsomal Stability MLM, % of remaining parent compound [4, 7] [%] | IC50 (HDAC6) [µM] | IC50 (PI3Kα) [µM] | IC50 (HCT 116) [µM] | Microsomal Stability RLM, % of remaining parent compound ([2]; rat liver microsomes 0.5 mg/mL, compound 5 μM, 45 min) [%] | Microsomal Stability HLM, % of remaining parent compound ([3]; human liver microsomes 0.5 mg/mL, compound 5 μM, 30 or 45 min) [%] | Microsomal Stability MLM, % of remaining parent compound ([4]; mouse liver microsomes 0.5 mg/mL, compound 5 μM, 30 min) [%] | IC50 (HepG2) [µM]
1 | CC(C)n1cnc2c(-c3cccc(OCCCC(=O)NO)c3)nc(N(C)C)nc21 [compound 31, 4-(3-(2-(dimethylamino)-9-isopropyl-9H-purin-6-yl)phenoxy)-N-hydroxybutanamide] | < 0.5 | 0.5 to 2 | 0.5 to 2 | 0.01 to 0.1 | 0.5 to 2 | 0.01 to 0.1 | 25 | 0.5 to 2 | 90 | 2 to 10 | 53 | – | – | – | – | – | – | –
2 | CC(C)n1c(NCCCCCC(=O)NO)nc2c(-c3cnc(N)nc3)nc(N3CCOCC3)nc21 [compound 6] | 0.5 to 2 | 2 to 10 | 2 to 10 | 0.01 to 0.1 | 2 to 10 | 0.1 to 1 | 88 | 2 to 10 | 88 | 2 to 10 | 89 | 0.1 to 1 | 0.01 to 0.1 | 0.5 to 2 | – | – | – | –
3 | CCCn1cnc2c(-c3cccc(OCCCC(=O)NO)c3)nc(N3CCOCC3)nc21 [compound 43, N-hydroxy-4-(3-(2-morpholino-9-propyl-9H-purin-6-yl)phenoxy)butanamide] | < 0.5 | 0.5 to 2 | < 0.5 | 0.1 to 1 | 0.5 to 2 | 0.01 to 0.1 | 54 | < 0.5 | 97 | 0.5 to 2 | 96 | – | – | – | – | – | – | –
4 | CC(C)n1cnc2c(-c3cccc(OCCCC(=O)NO)c3)nc(N3CCCC3)nc21 [compound 29, N-hydroxy-4-(3-(9-isopropyl-2-(pyrrolidin-1-yl)-9H-purin-6-yl)phenoxy)butanamide] | < 0.5 | 0.5 to 2 | < 0.5 | 0.01 to 0.1 | 0.5 to 2 | 0.1 to 1 | 9 | 0.5 to 2 | 97 | 0.5 to 2 | 75 | – | – | < 0.5 | – | – | – | –
5 | CC(C)n1cnc2c(-c3cccc(NC(=O)CCCCCCC(=O)NO)c3)nc(N3CCOCC3)nc21 [compound 4] | – | 0.5 to 2 | – | 0.01 to 0.1 | – | – | 42 | 0.5 to 2 | 36 | – | – | – | – | – | – | – | – | –
6 | CC(C)n1cnc2c(-c3cccc(OCCCCC(=O)NO)c3)nc(N3CCOCC3)nc21 [compound 10, N-hydroxy-5-(3-(9-isopropyl-2-morpholino-9H-purin-6-yl)phenoxy)pentanamide] | < 0.5 | 0.5 to 2 | – | 0.1 to 1 | 2 to 10 | 0.01 to 0.1 | 74 | 0.5 to 2 | 87 | 2 to 10 | – | – | 1 to 10 | – | – | – | – | –
7 | CC(C)n1cnc2c(N3CCOCC3)nc(-c3ccc(OCCCC(=O)NO)cc3)nc21 [compound 82, N-hydroxy-4-(4-(9-isopropyl-6-morpholino-9H-purin-2-yl)phenoxy)butanamide] | 0.5 to 2 | 2 to 10 | – | – | > 10 | 0.01 to 0.1 | 64 | – | 83 | > 10 | – | – | – | – | – | – | – | –
8 | COc1ccc2c(c1)[C@]13CCCC[C@@H]1[C@H](C2)N(C)CC3 [Dextromethorphan, dextromethorphan, reference compound] | – | – | – | – | – | – | – | – | – | – | – | – | – | – | 5 | 65 | 19 | –
9 | CCn1cnc2c(-c3cccc(OCCCC(=O)NO)c3)nc(N3CCOCC3)nc21 [compound 45, 4-(3-(9-ethyl-2-morpholino-9H-purin-6-yl)phenoxy)-N-hydroxybutanamide] | < 0.5 | 0.5 to 2 | < 0.5 | 0.1 to 1 | 0.5 to 2 | 0.01 to 0.1 | 45 | 0.5 to 2 | 105 | 0.5 to 2 | 78 | – | – | – | – | – | – | –
10 | CCn1c(CN(C)CCCCCC(=O)NO)nc2c(N3CCOCC3)nc(-c3cccc(CO)c3)nc21 [compound 97] | 0.5 to 2 | 2 to 10 | – | 0.01 to 0.1 | – | 0.1 to 1 | – | – | – | 2 to 10 | – | 0.1 to 1 | 0.01 to 0.1 | – | – | – | – | 2 to 10
11 | CCn1c(CN(C)Cc2ccc(/C=C/C(=O)NO)cc2)nc2c(N3CCOCC3)nc(-c3cnc(N)nc3)nc21 [compound 89, (E)-3-(4-((((2-(2-aminopyrimidin-5-yl)-9-ethyl-6-morpholino-9H-purin-8-yl)methyl)(methyl)amino)methyl)phenyl)-N-hydroxyacrylamide] | – | 0.5 to 2 | 0.5 to 2 | 0.1 to 1 | 2 to 10 | 0.1 to 1 | 70 | 2 to 10 | 87 | 2 to 10 | 70 | – | 0.01 to 0.1 | – | – | – | – | –
